Several values for one entry are separate records, joined by “and”; a condition that tells them apart may be missing. Identical values can stand only once.
Experiments:
[1] = system: sarcosine oxidase (Toyobo); test: Toyobo Sarcosine Oxidase Enzyme Absorbance with BSA and MIT; assay type: biochemical; details: for Sarcosine Oxidase Enzyme Absorbance, MEAN of 7-11 / Sarcosine Oxidase Enzyme Absorbance, replicates 7-11 / % Bias / Sarcosine Oxidase Enzyme Absorbance, MEAN of 1-5: Day 14; for Sarcosine Oxidase Enzyme Absorbance, MEAN of 7-11 / Sarcosine Oxidase Enzyme Absorbance, replicates 7-11 / Sarcosine Oxidase Enzyme Absorbance, MEAN of 1-5: 37° C.
Description: Tables 1-4 depict aqueous solutions comprising varying concentrations of BSA (at concentrations of 0 mg/mL, 5 mg/mL, 25 mg/mL, and 50 mg/mL), varying concentrations of MIT (at concentrations of 50 parts per million and 100 parts per million) or Proclin™ 300 (at concentrations of 0.7% and 1.4%) biocides over a particular time period (measurements were taken at days 0, 4, and 14 after exposure of the enzyme(s) to the aqueous solutions) and the associated enzyme absorbance measurements for sarcosine oxidase (commercially offered for sale by BBI Solutions and Toyobo). Absorbance measurements of the sarcosine oxidase enzyme(s) were taken via spectrophotometer for each aqueous solution (represented as columns 1-5 in Tables 1-4—column 6 is a blank), the absorbance being directly proportional to the enzyme activity being measured-which for Tables 1-4 is sarcosine oxidase enzyme activity. Accordingly, the higher the absorbance measurement, the higher the enzyme activity of sarcosine oxidase. Columns 7-11 represent five replicate readings in which the aqueous solution only contains BSA (i.e., there is no biocide(s) present in the aqueous solution). In addition, the mean values, standard deviations, and coefficients of variation are also presented for the enzyme activity/absorbance of each aqueous solution. All measurements were taken at 37° C.
As depicted below in Table 2, sarcosine oxidase (commercially offered for sale by Toyobo) enzyme activity is measured against various concentrations of MIT (biocide) and BSA (scavenger protein) over a period of 14 days (with absorbance measurements taken at 0, 4, and 14 days) for five different aqueous solutions (represented as columns 1-5-column 6 is a blank).

[2] = system: creatininase (BBI Solutions); test: BBI Solutions Creatininase Enzyme Absorbance with BSA and Proclin 300; assay type: biochemical
Source text: Absorbance measurements of the creatininase enzyme(s) were taken via spectrophotometer for each aqueous solution (represented as columns 1-5 in Tables 5-8—column 6 is a blank), the absorbance being directly proportional to the enzyme activity being measured-which for Tables 5-8 is creatininase enzyme activity. Accordingly, the higher the absorbance measurement, the higher the enzyme activity of creatininase. […] In addition, the mean values, standard deviations, and coefficients of variation are all presented for the enzyme activity/absorbance of each aqueous solution. All measurements were taken at 37° C.

[3] = 25 mg/mL BSA only, no MIT (100 ppm MIT row)
[4] = 50 mg/mL BSA only, no MIT (50 ppm MIT row)
[5] = 50 mg/mL BSA only, no MIT (100 ppm MIT row)
[6] = Day 0, BSA 5 mg/mL only, no Proclin 300, listed as of 0.7% Proclin 300
[7] = Day 0, BSA 5 mg/mL only, no Proclin 300, listed as of 1.4% Proclin 300
[8] = Day 0, BSA 25 mg/mL only, no Proclin 300, listed as of 0.7% Proclin 300
[9] = Day 0, BSA 25 mg/mL only, no Proclin 300, listed as of 1.4% Proclin 300
[10] = Day 0, BSA 50 mg/mL only, no Proclin 300, listed as of 0.7% Proclin 300
[11] = Day 0, BSA 50 mg/mL only, no Proclin 300, listed as of 1.4% Proclin 300
[12] = Day 4, BSA 5 mg/mL only, no Proclin 300, listed as of 0.7% Proclin 300
[13] = Day 4, BSA 5 mg/mL only, no Proclin 300, listed as of 1.4% Proclin 300
[14] = Day 4, BSA 25 mg/mL only, no Proclin 300, listed as of 0.7% Proclin 300
[15] = Day 4, BSA 25 mg/mL only, no Proclin 300, listed as of 1.4% Proclin 300
[16] = Day 4, BSA 50 mg/mL only, no Proclin 300, listed as of 0.7% Proclin 300
[17] = Day 4, BSA 50 mg/mL only, no Proclin 300, listed as of 1.4% Proclin 300
[18] = Day 14, BSA 5 mg/mL only, no Proclin 300, listed as of 0.7% Proclin 300
[19] = Day 14, BSA 5 mg/mL only, no Proclin 300, listed as of 1.4% Proclin 300
[20] = Day 14, BSA 25 mg/mL only, no Proclin 300, listed as of 0.7% Proclin 300
[21] = Day 14, BSA 25 mg/mL only, no Proclin 300, listed as of 1.4% Proclin 300
[22] = Day 14, BSA 50 mg/mL only, no Proclin 300, listed as of 0.7% Proclin 300
[23] = Day 14, BSA 50 mg/mL only, no Proclin 300, listed as of 1.4% Proclin 300

Sarcosine Oxidase Enzyme Absorbance, MEAN of 7-11 [1, 3]: 1.41 | Sarcosine Oxidase Enzyme Absorbance, MEAN of 7-11 [1, 4]: 1.41 | Sarcosine Oxidase Enzyme Absorbance, MEAN of 7-11 [1, 5]: 1.42 | % Bias ([1]; 50 ppm MIT vs no MIT, 5 mg/mL BSA): 0.3% | % Bias ([1]; 50 ppm MIT vs no MIT, 25 mg/mL BSA): 1.6% | % Bias ([1]; 50 ppm MIT vs no MIT, 50 mg/mL BSA): 0.7% | Sarcosine Oxidase Enzyme Absorbance, MEAN of 1-5 ([1]; 50 ppm MIT, 5 mg/mL BSA): 0.29 | Sarcosine Oxidase Enzyme Absorbance, MEAN of 1-5 ([1]; 50 ppm MIT, 25 mg/mL BSA): 1.39 | Sarcosine Oxidase Enzyme Absorbance, MEAN of 1-5 ([1]; 50 ppm MIT, 50 mg/mL BSA): 1.42 | % Bias ([1]; 100 ppm MIT vs no MIT, 5 mg/mL BSA): −0.8% | % Bias ([1]; 100 ppm MIT vs no MIT, 25 mg/mL BSA): −0.1% | % Bias ([1]; 100 ppm MIT vs no MIT, 50 mg/mL BSA): 0.2% | Sarcosine Oxidase Enzyme Absorbance, MEAN of 1-5 ([1]; 100 ppm MIT, 5 mg/mL BSA): 0.31 | Sarcosine Oxidase Enzyme Absorbance, MEAN of 1-5 ([1]; 100 ppm MIT, 25 mg/mL BSA): 1.41 | Sarcosine Oxidase Enzyme Absorbance, MEAN of 1-5 ([1]; 100 ppm MIT, 50 mg/mL BSA): 1.42 | absorbance of the sarcosine oxidase enzyme compared to samples containing 0 mg/mL of BSA ([1]; days 4 and 14, 5, 25 and 50 mg/mL BSA, with MIT): increased absorbance | sarcosine oxidase absorbance, solutions 7-11 ([1]; days 4 and 14, only BSA, no MIT): increased (or at least maintained) | MEAN absorbance, solutions 7-11 [2, 6]: 0.45 | MEAN absorbance, solutions 7-11 [2, 7]: 0.44 | MEAN absorbance, solutions 7-11 [2, 8]: 0.45 | MEAN absorbance, solutions 7-11 [2, 9]: 0.41 | Absorbance, solutions 7-11 [2, 10]: 0.682 and 0.675 and 0.716 | MEAN absorbance, solutions 7-11 [2, 10]: 0.48 | MEAN absorbance, solutions 7-11 [2, 11]: 0.39 | MEAN absorbance, solutions 7-11 [2, 12]: 0.69 | MEAN absorbance, solutions 7-11 [2, 13]: 0.65 | Absorbance, solutions 7-11 [2, 14]: 0.783 and 0.769 and 0.787 and 0.807 | MEAN absorbance, solutions 7-11 [2, 14]: 0.56 | MEAN absorbance, solutions 7-11 [2, 15]: 0.52 | MEAN absorbance, solutions 7-11 [2, 16]: 0.44 | MEAN absorbance, solutions 7-11 [2, 17]: 0.44 | Absorbance, solutions 7-11 [2, 18]: 0.993 and 0.992 and 0.972 and 1.009 | MEAN absorbance, solutions 7-11 [2, 18]: 0.76 | MEAN absorbance, solutions 7-11 [2, 19]: 0.75 | MEAN absorbance, solutions 7-11 [2, 20]: 0.60 | MEAN absorbance, solutions 7-11 [2, 21]: 0.59 | MEAN absorbance, solutions 7-11 [2, 22]: 0.44 | MEAN absorbance, solutions 7-11 [2, 23]: 0.42 | absorbance of the creatininase enzyme compared to samples containing 0 mg/mL of BSA ([2]; day 4, Proclin 300 0.7%, 5, 25 and 50 mg/mL BSA): mild increase | creatininase absorbance, solutions 7-11 ([2]; days 4 and 14, only BSA, no Proclin 300): increased (or at least maintained)
Substance: bovine serum albumin [BSA]
Sarcosine Oxidase Enzyme Absorbance, replicates 7-11 [1, 3]: 1.443 and 1.445 and 1.46 and 1.471 and 1.461 | Sarcosine Oxidase Enzyme Absorbance, replicates 7-11 [1, 4]: 1.436 and 1.456 and 1.449 and 1.465 and 1.488 | Sarcosine Oxidase Enzyme Absorbance, replicates 7-11 [1, 5]: 1.476 and 1.446 and 1.464 and 1.474 and 1.469 | Absorbance, solutions 7-11 [2, 6]: 0.658 and 0.656 and 0.654 and 0.693 and 0.67 | Absorbance, solutions 7-11 [2, 7]: 0.65 and 0.644 and 0.679 and 0.656 and 0.652 | Absorbance, solutions 7-11 [2, 8]: 0.669 and 0.654 and 0.645 and 0.676 and 0.685 | Absorbance, solutions 7-11 [2, 9]: 0.613 and 0.607 and 0.624 and 0.644 and 0.627 | Absorbance, solutions 7-11 [2, 11]: 0.593 and 0.598 and 0.617 and 0.624 and 0.606 | Absorbance, solutions 7-11 [2, 12]: 0.886 and 0.907 and 0.938 and 0.922 and 0.893 | Absorbance, solutions 7-11 [2, 13]: 0.863 and 0.829 and 0.895 and 0.929 and 0.882 | Absorbance, solutions 7-11 [2, 15]: 0.757 and 0.715 and 0.735 and 0.756 and 0.767 | Absorbance, solutions 7-11 [2, 16]: 0.671 and 0.651 and 0.656 and 0.677 and 0.657 | Absorbance, solutions 7-11 [2, 17]: 0.671 and 0.657 and 0.676 and 0.674 and 0.645 | Absorbance, solutions 7-11 [2, 19]: 0.987 and 0.959 and 0.967 and 1.007 and 0.986 | Absorbance, solutions 7-11 [2, 20]: 0.841 and 0.843 and 0.815 and 0.846 and 0.808 | Absorbance, solutions 7-11 [2, 21]: 0.825 and 0.799 and 0.805 and 0.829 and 0.817 | Absorbance, solutions 7-11 [2, 22]: 0.672 and 0.653 and 0.659 and 0.682 and 0.685 | Absorbance, solutions 7-11 [2, 23]: 0.652 and 0.643 and 0.64 and 0.67 and 0.655
